Source: patent US10308682B2, “Inhibition of tumor growth with aggregates of small molecules” (BRANDEIS UNIVERSITY, priority 2013, dated 2019)

Legend:
[1] = Thioflavin T fluorescence quantification of aggregates of 1; format: physicochemical; conditions: ThT emission, PBS buffer
[2] = Influence of surfactant Triton X-100 on hydrogel of 1; format: physicochemical; conditions: 1 at 10 mM
Procedure: FIG. 14 depicts the influence of a surfactant on self-assembly of 1. Triton X-100 was mixed with 1 (10 mM) before and after hydrogel formation. The hydrogel of 1 can tolerate up to 0.1% Triton X-100. Treated with 0.1% Triton X-100, the fibrillar aggregates of 1 tend to cross-link with each other instead of randomly dispersing, but the width of fibrillar aggregates remains unchanged.

HepG2 = experiment: Cell viability assay (MTT), HepG2; format: cell-based
Procedure: (§1) Cells in exponential growth phase were seeded in a 96 well plate at a concentration of 50,000 cell/well. The cells were allowed to attach to the wells for 24 h at 37° C., 5% CO2, then the culture medium was removed and 100 μL new culture medium containing 1 at gradient concentrations was placed into each well. After culturing at 37° C., 5% CO2 for desired time, each well was added by 10 μL of 5 mg/mL MTT 43-(4,5-Dimethylthiazol-2-yl)-2,5-diphenyltetrazolium bromide), and the plated cells were incubate at dark for 4 h. 100 μL 10% SDS with 0.01 M HCl was added to each well to stop the reduction reaction and to dissolve the purple. After incubation of the cells at 37° C. for overnight, the viability is measured. Data represent the mean±standard deviation of three independent experiments.
(§2) The estimation of the threshold concentration of aggregation (320-340 μM) for 1 allows us to examine the cytotoxicity of 1 in monomer and molecular aggregate forms. We first tested the cytotoxicity of 1 towards HeLa cells, the most widely studied cancer cell line, below and above the threshold concentration.

HeLa cells [3] = experiment: Tubulin staining (tubulin tracker), HeLa cells; format: cell-based; conditions: 24 h
Procedure: Cells in exponential growth phase were seeded in glass bottomed culture chamber at 10,000 cell/mL. The cells were allowed for attachment for 24 h at 37° C., 5% CO2. The culture medium was removed, and new culture medium containing 1 at 0 or 400 μM was added. After 24 h of incubation, cells were washed with PBS buffer for 3 times and stained by Tubulin Tracker™ Green at 100 nM and DAPI 300 nM in PBS for 30 min at 37° C. in dark. The sample was rinsed three times in PBS, and the cells were kept in PBS for imaging.
To confirm that the aggregates of 1 clusters multiple tubulin heterodimers and inhibit the formation of microtubules inside live cells, we used a tubulin tracker that selectively binds to tubulin polymers (microtubules) over tubulin monomers to stain the HeLa cells treated with 1 at different concentrations for 24 h. […] As the tubulin tracker only stains microtubule (i.e., polymerized tubulin heterodimers), the fluorescence from the cluster indicates the tubulin heterodimers in the clusters are short microtubules. […] The loss of microtubules induced by molecular aggregates of 1 explains the origins of the delay of cell migration and the arrest of cell-cycle in HeLa cells incubated with 400 or 500 μM of 1.

Capan-2 = experiment: Cell viability assay (MTT), Capan-2; format: cell-based
Procedure: as §1, §2

MES-SA = experiment: Cell viability assay (MTT), MES-SA; format: cell-based
Procedure: as §1, §2

PC12 cells = experiment: Tubulin staining (tubulin tracker), PC12 cells; format: cell-based; conditions: 400 μM, 24 h
MCF-7 = experiment: Cell viability assay (MTT), MCF-7; format: cell-based
Procedure: as §1, §2

HeLa cells [4] = experiment: Degradation of 1 in HeLa cells (LC-MS); format: in vitro ADME; conditions: 12 h at 37° C.
Procedure: FIG. 17 depicts the degradation of 1 in HeLa cells. HeLa cells were lysed after incubation with 1 at different concentrations for 12 h at 37° C. The fragmental residue of 1 detected and quantified by LC-MS was (S)-2-(2-(naphthalen-2-yl) acetamido)-3-phenylpropanoic acid.

T98G = experiment: Cell viability assay (MTT), T98G; format: cell-based
Procedure: as §1, §2

HeLa tumors = experiment: Xenograft mouse model, HeLa tumors, peritumoral injection; format: in vivo, Nu/nu mice
Procedure: FIG. 2 depicts the cytotoxicity of 1. Cell viability assay (MTT) of HeLa cells after 24 and 48 h of treatment with (a) as prepared or (b) filtered medium containing different concentrations of 1. Also shown are MTT assays of 1 towards (c) MCF 7, (d) HepG2, (e) T98G and (f) PC12 cell lines. Data are presented as mean±SD of three independent experiments. (g) Tumor progression curves of mice bearing HeLa tumors. 0.1 mL of 1 at 5 mM or 0.5 mM in PBS buffers or just PBS buffer as control (six doses, starting day 1) was subcutaneous peritumorally injected every three days. Data are presented as mean±SD of relative tumor volume (n=4 for treatment groups and n=3 for control group). *p<0.05, by Student's t test. (at day 19, 5 mM=bottom data point; 0.5 mM=middle data point; control=top data point). (h) A representative image to show the mice, started with similar initial tumor volume (V0), from each group on 19th day of treatment. White arrows point at tumor. See also FIG. 9, FIG. 10, and FIG. 11.
Nu/nu mice were injected with HeLa cells (5×10^6) subcutaneously for tumor development. Treatment was started when average tumor size reached 30 mm^3. Mice were divided into three groups. One group (n=3) received 0.1 mL PBS buffer as control, the other two groups (n=4) received 0.1 mL of 1 at 5 mM or 0.5 mM. Six doses were given every three days starting day 1. Progression of tumor was monitored until 19th day of the treatment.
To further assess the inhibitory effect of molecular aggregates of 1 to cancer cells, we inoculated HeLa cells on nude mice and treated the xenograft tumors with molecular aggregates of 1 by peritumoral injection.

O=C(Cc1ccc2ccccc2c1)N[C@@H](Cc1ccccc1)C(=O)N[C@@H](Cc1ccccc1)C(=O)O [Compound 1]
threshold concentration for the formation of molecular aggregates [1]: 320 to 340 µM | Triton X-100 tolerated by the hydrogel [2]: up to 0.1 % Triton X-100 | cytotoxicity towards HepG2 (HepG2): decreases of cell viabilities only observed at 400 and 500 μM | microtubule morphology (HeLa cells [3]; 200 μM): essentially the same morphology and distribution as those in the control cells | microtubule morphology (HeLa cells [3]; 300 μM): a small amount of the microtubules appear to be shorter than those in the control cells | microtubule morphology (HeLa cells [3]; 400 μM): large clusters surrounded by scattered microtubule fibrils | microtubule morphology (HeLa cells [3]; 400 μM, medium filtered by 0.22 μm PVDF membrane): (almost) normal microtubule networks, with only few clusters | cytotoxicity towards Capan-2 (Capan-2): decreases of cell viabilities only observed at 400 and 500 μM | cytotoxicity towards MES-SA (MES-SA): decreases of cell viabilities only observed at 400 and 500 μM | microtubule morphology (PC12 cells): intact microtubule networks | cytotoxicity towards MCF-7 (MCF-7): decreases of cell viabilities only observed at 400 and 500 μM | degradation of 1 (HeLa cells [4]): rather fast | cytotoxicity towards T98G (T98G): decreases of cell viabilities only observed at 400 and 500 μM | effect on tumor growth (HeLa tumors; 0.5 mM (~1 mg/kg), 0.1 mL peritumoral, every three days): little effect on tumor growth | surface of the skin covering and around the tumor (HeLa tumors; 5 mM): intact (with no ulceration or sclerosis) | effect on tumor progression (HeLa tumors; 5 mM (~10 mg/kg), 0.1 mL peritumoral, every three days): starts to inhibit tumor progression after 10th day of treatment | tumor size versus 0.5 mM group and control group (HeLa tumors; 5 mM, 19th day of treatment): significantly smaller | body weight change (HeLa tumors; 0.1 mL of 5 mM or 0.5 mM): no significant weight loss or weight gain
